Experimental data taken from patent publication US20220105183A1, “MICRO-NANO STRUCTURE FORMED BY SELF-ASSEMBLING ORGANIC SMALL MOLECULE COMPOUND AND USE THEREOF” (Qingdao University of Science and Technology, priority 2018, published 2022).

How the values were obtained:
[1] = DLS particle size / self-assembly of the compounds in aqueous solution; assay type: physicochemical; conditions: micro-nano structure, 20 μM working solution in deionized water
Description: The term “particle size” refers to the size of particles, also known as “granularity” or “diameter”. When a certain physical characteristic or physical behavior of the measured particle is closest to a homogeneous sphere (or combination) of a certain diameter, the diameter (or combination) of the sphere is taken as the equivalent particle size of the measured particle. The particle size parameter of the micro-nano structure of the present invention is measured by the principle of dynamic light scattering (DLS), specifically measured by a laser particle size analyzer.
(§1) Taking the self-assembled micro-nano structure of Compound II-1 as an example, II-1 was dissolved in DMSO (also can be an organic solvent such as ethanol) to prepare a 2 mM storage solution, and a small amount of storage solution was added to deionized water to prepare 20 μM working solution. Took 10 μL and dropped it on copper mesh, observed and analyzed under transmission electron microscope (TEM), cryo-transmission electron microscope. Took 10 μL and dropped it on mica plate, observed and analyzed under atomic force microscope (AFM). In FIGS. 5, A, B, C and D were TEM photographs, cryo-transmission electron microscope photographs, AFM photographs, and AFM analysis data, respectively. According to the photographs and data, II-1 was self-assembled into nanosheets with a diameter of 40-70 nm and a thickness of 3.7-3.9 nm. […]
Among them, the particle size test results of II-12 to II-15 in aqueous solution are shown in FIG. 6, and the results of dynamic light scattering DLS of II-16 to 1-18 are shown in FIG. 7).

[2] = UV absorption, fluorescence emission and quantum yield in solutions of different polarities; assay type: physicochemical
Description: The Compound II-1 of the present invention was prepared as a 2 mM storage solution in DMSO, and then 10 μL was added to 2 mL of solutions with different polarities (including water, dimethyl sulfoxide, N,N-dimethylformamide, methanol, ethanol, acetone, methylene chloride, acetonitrile), a UV spectrophotometer was used to test the UV absorption and to find the maximum absorption wavelength. The molar extinction coefficient of II-1 in solutions of different polarities was calculated from the ultraviolet absorption spectrum. Excited by the maximum absorption wavelength, the fluorescence emission spectrum was tested by a fluorescence spectrometer, the data was plotted with origin and the integral area was calculated. The fluorescence quantum yield φx, φx=φs(Fx/Fs)(As/Ax)(λexs/λexx)(nx/ns)^2, was calculated from the obtained data to obtain the characteristic parameters of Compound II-1 in solutions of different polarities (Table 3).

[3] = Photodynamic effect test with carboxy-H2DCFDA; conditions: 10 μM in water with 25 μM carboxy-H2DCFDA, 808 nm laser 10 minutes
Description: The control group only added carboxy-H2DCFDA compound. Irradiated with 808 nm laser for 10 minutes, and the sample was lowered to room temperature, and its fluorescence emission spectrum (Ex=495 nm, Em=530 nm) was tested. […] It has been verified that other compounds of the present invention have no similar photodynamic effect.

T4 cells = assay: Fluorescence imaging and photothermal treatment in sentinel lymphatic metastasis model mice; assay type: in vivo; conditions: for tumor metastasis in the lungs, ink staining: day 20; for temperature at sentinel lymph nodes under laser: 808 nm laser (1.5 W/cm2) 10 minutes
Description: (§2) Cell preparation: The cells in the culture flask were digested with trypsin and placed in a centrifuge tube for use. The supernatant was discarded by centrifugation and counted. Then a large amount of medium was added and it was placed in a foam box to be taken to the company. The supernatant was removed by centrifugation, and about 3.5 mL of serum-free medium was added. It was prepared for injection.
(§3) After that, small animal fluorescence imaging and photothermal therapy can be performed.
(§4) Fluorescence imaging for the small animal was performed on the established mouse metastasis model. Using tail vein injection and intratumoral injection (FIG. 22), fluorescence detection was performed every 1 hour for a total of 5 hours.
(§5) The mice were treated with photothermal therapy after injection of tumor cells on the right hind foot pad with obvious sentinel lymph nodes (about 20 days). In this experiment, mice were randomly divided into 3 groups, each group 5 mice, saline+laser irradiation control group, intratumoral injection+laser irradiation experimental group and tail vein injection+laser irradiation experimental group, respectively.
(§6) After photothermal treatment of the mice, the mice were photographed and their weights were recorded every 5 days. […] After the mice were stained with ink on the lungs on day 20, the lungs of the mice were photographed.

[4] = as above; assay type: in vivo
Description: as §2, §3, §4, §5, §6

[5] = TEM, cryo-TEM and AFM of the self-assembled micro-nano structure; assay type: physicochemical
Description: as §1

[6] = Photoacoustic imaging test in aqueous solution; assay type: physicochemical; conditions: 5, 10, 20 and 40 μM in water
Description: In the experimental group, 2.5, 5, 10 and 20 μL of Compound II-1 (concentrations of 5, 10, 20 and 40 μM, respectively) were respectively added to 1 mL of water, and the test solution was placed in the prosthesis for photoacoustic imaging test.

[7] = 20 μM in deionized water, TEM/AFM

CCN1C(=CC=C2CCCC(C=CC3=C(C#N)C(=C(C#N)C#N)OC3(C)C)=C2Cl)C(C)(C)c2ccccc21 [II-1]
DLS particle size peak (nm) [1]: 104 nm | DLS particle size range (nm) [1]: 33-266 nm | Φ (fluorescence quantum yield) ([2]; N,N-dimethylformamide): 0.19% | ε*10^4 ([2]; N,N-dimethylformamide): 7.92 M^−1cm^−1 | λem ([2]; N,N-dimethylformamide): 853 nm | λmax ([2]; N,N-dimethylformamide): 844 nm | Φ (fluorescence quantum yield) ([2]; acetone): 0.29% | ε*10^4 ([2]; acetone): 8.91 M^−1cm^−1 | λem ([2]; acetone): 851 nm | λmax ([2]; acetone): 832 nm | Φ (fluorescence quantum yield) ([2]; acetonitrile): 0.35% | ε*10^4 ([2]; acetonitrile): 9.15 M^−1cm^−1 | λem ([2]; acetonitrile): 850 nm | λmax ([2]; acetonitrile): 832 nm | Φ (fluorescence quantum yield) ([2]; dichloromethane): 0.35% | ε*10^4 ([2]; dichloromethane): 8.55 M^−1cm^−1 | λem ([2]; dichloromethane): 850 nm | λmax ([2]; dichloromethane): 834 nm | Φ (fluorescence quantum yield) ([2]; dimethyl sulfoxide): 0.12% | ε*10^4 ([2]; dimethyl sulfoxide): 10.24 M^−1cm^−1 | λem ([2]; dimethyl sulfoxide): 854 nm | λmax ([2]; dimethyl sulfoxide): 848 nm | Φ (fluorescence quantum yield) ([2]; ethanol): 0.25% | ε*10^4 ([2]; ethanol): 10.74 M^−1cm^−1 | λem ([2]; ethanol): 851 nm | λmax ([2]; ethanol): 828 nm | Φ (fluorescence quantum yield) ([2]; methanol): 0.19% | ε*10^4 ([2]; methanol): 11.24 M^−1cm^−1 | λem ([2]; methanol): 850 nm | λmax ([2]; methanol): 830 nm | Φ (fluorescence quantum yield) ([2]; water): 0.11% | ε*10^4 ([2]; water): 2.76 M^−1cm^−1 | λem ([2]; water): 840 nm | λmax ([2]; water): 730 nm | production of reactive oxygen radicals (photodynamic effect) [3]: does not produce reactive oxygen radicals (ROS) | scars at the sentinel lymph nodes over time (T4 cells; intratumoral injection + laser): obviously healed | tumor metastasis in the lungs, ink staining (T4 cells; intratumoral injection + laser): no obvious tumor metastasis | temperature at sentinel lymph nodes under laser (T4 cells; intratumoral injection): significantly higher than that in the saline injection group | entry into the sentinel lymph node, fluorescence (T4 cells; intratumoral injection, detection every 1 hour for 5 hours): can obviously enter the sentinel lymph node of mice | day on which mice died (first) (T4 cells; tail vein injection + laser): 15 days | scars at the sentinel lymph nodes over time (T4 cells; tail vein injection + laser): showed a tendency to heal | tumor metastasis in the lungs, ink staining (T4 cells; tail vein injection + laser): obvious tumor metastasis | temperature at sentinel lymph nodes under laser (T4 cells; tail vein injection): significantly higher than that in the saline injection group | body weight ([4]; intratumoral injection + laser): stable in a healthy state | body weight ([4]; tail vein injection + laser): decreased on the tenth day | nanosheet diameter [5, 7]: 40-70 nm | nanosheet thickness [5, 7]: 3.7-3.9 nm | Morphology ([5]; micro-nano structure in aqueous solution, AFM and TEM): nano-sheet | photoacoustic signal against concentration [6]: the photoacoustic signal increased with the increase of the concentration of Compound II-1 | wavelength of the strongest photoacoustic signal [6]: 710-750 nm
